From patent publication US20250313807A1, “SYSTEMS AND METHODS FOR CHARACTERIZATION OF POLYCYSTIC KIDNEY DISEASE” (University of Washington, priority 2022, published 2025)

Columns and labels:
PKD organoid cysts = assay: cyst expansion in PKD organoids under static conditions (96-well plate); format: cell-based, human
Experimental: To test functionally whether cyst growth is linked to glucose transport in human organoids, cyst expansion was quantified in increasing concentrations of D-glucose under static conditions (96-well plate).
To test this hypothesis, the effects of pharmacological transport inhibitors on cysts were examined in static conditions.
Kidney organoid differentiation. […] 5,000-20,000 hPSCs per well were placed in each 24-well plate pre-coated with 300 μL of DMEM-F12 containing 0.2 mg/mL Matrigel and sandwiched the following day with 0.2 mg/mL Matrigel in mTeSR1 ([sequence] Technologies, Vancouver) to produce scattered, isolated spheroid colonies. 48 hrs after sandwiching, hPSC spheroids were treated with 12 μM CHIR99021 (Tocris Bioscience) for 36 h, then changed to RB (Advanced RPMI+1× Glutamax+1×B27 Supplement, all from Thermo Fisher Scientific) after 48 hours, and replaced with fresh RB every 3 days thereafter.
Image/video collection. Image collection was performed on a Nikon Ti Live-Cell Inverted Widefield microscope inside of an incubated live imaging chamber supplemented with 5% carbon dioxide. […] For longer-term experiments conducted in static 96-well cultures, organoids were imaged at regular intervals (typically 24 hours) and analyzed at the endpoint indicated in the figure graphs. Phase contrast and GFP (200 ms exposure) images were taken every 5 minutes for a maximum of 12 hours. […]

PKD organoids [1] = system: PKD organoids
Experimental: The low height of the channels in the flow devices enabled continuous time lapse imaging of fluorescent molecules without high background fluorescence.
Organoid perfusion in microfluidic chip. Ibidi μ-Slide VI0.4 were coated with 3.0% Reduced Growth Factor Geltrex (Life Technologies) and left at 37° C. overnight to solidify. Kidney organoids (21-40 d) were picked from adhered culture plates, pipetted into the slide channels (2-3 per channel) with RB, and left for 24 hrs at 37° C. to attach. Organoids were distributed randomly within the channel. For the fluidic condition, 60 mL syringes filled with RB were attached to channels using clear tubing (Cole-Parmer, 0.02″ ID, 0.083″ OD). A clamp was used to close off the tubing, and the media in the syringe was changed to 25 mL RB+36.5 μM 2-NBD-Glucose fluorescent glucose (Abcam ab146200). […]
Image/video collection. […] Experiments in microfluidic devices were recorded for 6 hours. […] Cyst growth rate in microfluidic devices was therefore calculated on an individual basis, when each cyst reached its maximal volume, which varied for each sample from 1 hour to 5 hours after the start of the experiment. For longer-term experiments conducted in static 96-well cultures, organoids were imaged at regular intervals (typically 24 hours) and analyzed at the endpoint indicated in the figure graphs. […]

[2] = system: PKD cysts of Pkd1^RC/RC mice; settings: systemic perfusion with PBS+1 mM NBD-Glucose, kidney tissue sections
Experimental: To determine whether PKD cysts absorbed glucose in vivo, a methodology was devised to inject mice with NBD glucose and immediately retrieve their kidneys (FIG. 6D).
For perfusion experiments, NBD Glucose was freshly dissolved in PBS to a concentration of 1 mM. Freshly sacrificed Pkd1^RC/RC mice (>8 months old) were incised through the chest and nicked at the vena cava with a 27-gauge needle. Keeping pressure on the vena cava, mice were perfused systemically through the heart with a syringe containing 10 mL of PBS, followed by a second syringe containing 5 mL of either PBS alone (control) or PBS+1 mM NBD-Glucose. Kidneys were harvested immediately and embedded fresh without fixation or sucrose equilibration in OCT. Cryostat-cut mouse kidney sections (20 μm) were mounted in OCT and imaged on a confocal microscope with 10× objective. […] Mice were maintained on a standard diet under standard pathogen-free housing conditions, with food and water freely available.

PKD organoids [3] = assay: live/dead staining (calcein AM/propidium iodide) of cystic organoids; format: cell-based, human; settings: 24 and 48 hours of treatment

Compound: CCCN(CCC)S(=O)(=O)c1ccc(C(=O)O)cc1 [probenecid]
- effect on cyst growth (PKD organoid cysts; 15 mM D-Glucose, non-toxic doses): no effect on cyst growth

Compound: O=C[C@H](Nc1ccc([N+](=O)[O-])c2nonc12)[C@@H](O)[C@H](O)[C@H](O)CO [NBD glucose, 2-(N-(7-Nitrobenz-2-oxa-1,3-diazol-4-yl)Amino)-2-Deoxyglucose]
- absorption into organoid proximal and distal tubules (immunofluorescence) (PKD organoids [1]; organoid tubules): absorbed into and accumulated inside organoid proximal and distal tubules
- washout from loaded PKD organoids (PKD organoids [1]; switched into media containing only unlabeled glucose, continuous flow): disappeared rapidly
- uptake by cyst-lining epithelia and surrounding interstitium [2]: readily took up NBD glucose

Compound: O=C(CCc1ccc(O)cc1)c1c(O)cc(O)cc1O [Phloretin, phloretin]
- decrease of cyst size (PKD organoid cysts; 800 μM phloretin, 15 mM glucose): 77%
- toxicity by live-dead staining (PKD organoids [3]): no significant toxicity
